In patent US6737383B1, “Herbicidal oxadiazolidines” (priority 1999, dated 2004):

What was measured:
bedstraw = assay: Test B pre/postemergence bedstraw; format: in vivo, Galium aparine
Procedure, shortened: (§1)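 Herbicidal effect was estimated by eye on a ten-point control scale after plants spent twelve to sixteen days in a greenhouse following soil or foliar treatment. Foliar sprays targeted plants at one to four leaves; all doses were formulated in a non-phytotoxic solvent with surfactant.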

blackgrass = assay: Test B pre/postemergence blackgrass; format: in vivo, Alopecurus myosuroides
Procedure, shortened: as §1

surinam grass = assay: Test B pre/postemergence surinam grass; format: in vivo, Brachiaria decumbens
Procedure, shortened: as §1

cocklebur = assay: Test B pre/postemergence cocklebur; format: in vivo, Xanthium strumarium
Procedure, shortened: as §1

corn = assay: Test B pre/postemergence corn; format: in vivo, Zea mays
Procedure, shortened: as §1

crabgrass = assay: Test B pre/postemergence crabgrass; format: in vivo, Digitaria sanguinalis
Procedure, shortened: as §1

giant foxtail = assay: Test B pre/postemergence giant foxtail; format: in vivo, Setaria faberii
Procedure, shortened: as §1

morningglory = assay: Test B pre/postemergence morningglory; format: in vivo, Ipomoea hederacea
Procedure, shortened: as §1

pigweed = assay: Test B pre/postemergence pigweed; format: in vivo, Amaranthus retroflexus
Procedure, shortened: as §1

rape = assay: Test B pre/postemergence rape; format: in vivo, Brassica napus
Procedure, shortened: as §1

soybean = assay: Test B pre/postemergence soybean; format: in vivo, Glycine max
Procedure, shortened: as §1

sugar beet = assay: Test B pre/postemergence sugar beet; format: in vivo, Beta vulgaris
Procedure, shortened: as §1

velvetleaf = assay: Test B pre/postemergence velvetleaf; format: in vivo, Abutilon theophrasti
Procedure, shortened: as §1

wheat = assay: Test B pre/postemergence wheat; format: in vivo, Triticum aestivum
Procedure, shortened: as §1

wild oat = assay: Test B pre/postemergence wild oat; format: in vivo, Avena fatua
Procedure, shortened: as §1

purple nutsedge = assay: Test B pre/postemergence purple nutsedge; format: in vivo, Cyperus rotundus; settings: Postemergence
Procedure, shortened: as §1

rice = assay: Test B flood test rice; format: in vivo, Oryza sativa
Procedure, shortened: (§2)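 Flood test on plants grown to the 2-leaf stage; treated plants kept in greenhouse twelve to sixteen days, then visually rated against controls on a 0 (no effect) to 10 (complete control) scale.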

smallflower flatsedge = assay: Test B flood test smallflower flatsedge; format: in vivo, Cyperus difformis
Procedure, shortened: as §2

duck salad = assay: Test B flood test duck salad; format: in vivo, Heteranthera limosa
Procedure, shortened: as §2

bamyardgrass = assay: Test B flood test barnyardgrass; format: in vivo, Echinochloa crus-galli
Procedure, shortened: as §2

[1] = Preemergence, Rate 62 g/ha, scale of 0 to 10 where 0 is no effect and 10 is complete control
[2] = Preemergence, Rate 250 g/ha, scale of 0 to 10 where 0 is no effect and 10 is complete control
[3] = Preemergence, Rate 500 g/ha, scale of 0 to 10 where 0 is no effect and 10 is complete control
[4] = Rate 62 g/ha, Postemergence, scale of 0 to 10 where 0 is no effect and 10 is complete control
[5] = Rate 125 g/ha, Postemergence, scale 0 to 10
[6] = Rate 125 g/ha, Preemergence, scale of 0 to 10 where 0 is no effect and 10 is complete control
[7] = Rate 500 g/ha, Postemergence, scale 0 to 10, 0 no effect, 10 complete control
[8] = Rate 62 g/ha, headed Pre-emergence (flood test species), scale 0 to 10 (0 no effect, 10 complete control)
[9] = Rate 125 g/ha, Pre-emergence, flood test species, scale 0 to 10 where 0 is no effect and 10 is complete control
[10] = Rate 250 g/ha, Pre-emergence, flood-test species, scale 0 to 10, 0 is no effect, 10 is complete control
[11] = Rate 500 g/ha, Pre-emergence, flood test species, scale 0 to 10 (0 no effect, 10 complete control)

Q: How did the “Bedstraw plant response rating” value (bedstraw; [1]) turn out when `COCCOCn1c(=O)on(C(=O)N(c2ccc(F)cc2)C(C)C)c1=O` [Compound 258] was run?
A: 0

Q: And the “Bedstraw plant response rating” value (bedstraw; [2])?
A: 3

Q: And the “Plant response rating, Bedstraw” value (bedstraw; [3])?
A: 10

Q: What about the “Bedstraw plant response rating” value (bedstraw; [4]) of the same molecule?
A: 2

Q: And the “Bedstraw plant response rating” value (bedstraw; [5])?
A: 4

Q: And the “Bedstraw plant response rating” value (bedstraw; [6])?
A: 3

Q: What about the “Plant response rating (0 to 10; 0 is no effect, 10 is complete control), Bedstraw” value (bedstraw; Rate 250 g/ha, Postemergence) of the same molecule?
A: 7

Q: And the “Bedstraw plant response rating” value (bedstraw; [7])?
A: 8

Q: What about the “Blackgrass plant response rating” value (blackgrass; [1]) of the same molecule?
A: 6

Q: What about the “Blackgrass plant response rating” value (blackgrass; [2]) of the same molecule?
A: 8

Q: What about the “Plant response rating, Blackgrass” value (blackgrass; [3]) of the same molecule?
A: 8

Q: And the “Blackgrass plant response rating” value (blackgrass; [4])?
A: 1

Q: What about the “Blackgrass plant response rating” value (blackgrass; [5]) of the same molecule?
A: 5

Q: What about the “Blackgrass plant response rating” value (blackgrass; [6]) of the same molecule?
A: 8

Q: And the “Plant response rating (0 to 10; 0 is no effect, 10 is complete control), Blackgrass” value (blackgrass; Rate 250 g/ha, Postemergence)?
A: 7

Q: What about the “Blackgrass plant response rating” value (blackgrass; [7]) of the same molecule?
A: 7

Q: What about the “B. signalgrass plant response rating” value (surinam grass; [1]) of the same molecule?
A: 0

Q: What about the “B. signalgrass plant response rating” value (surinam grass; [2]) of the same molecule?
A: 7

Q: And the “Plant response rating, B. signalgrass” value (surinam grass; [3])?
A: 8

Q: What about the “B. signalgrass plant response rating” value (surinam grass; [4]) of the same molecule?
A: 0

Q: What about the “B. signalgrass plant response rating” value (surinam grass; Rate 125 g/ha, Postemergence, scale 0 (no effect) to 10 (complete control)) of the same molecule?
A: 0

Q: And the “B. signalgrass plant response rating” value (surinam grass; [6])?
A: 4

Q: And the “Plant response rating (0 to 10; 0 is no effect, 10 is complete control), B. signalgrass” value (surinam grass; Rate 250 g/ha, Postemergence)?
A: 4

Q: And the “B. signalgrass plant response rating” value (surinam grass; [7])?
A: 8

Q: What about the “Cocklebur plant response rating” value (cocklebur; [1]) of the same molecule?
A: 0

Q: What about the “Cocklebur plant response rating” value (cocklebur; [2]) of the same molecule?
A: 0

Q: And the “Plant response rating, Cocklebur” value (cocklebur; [3])?
A: 0

Q: What about the “Cocklebur plant response rating” value (cocklebur; [4]) of the same molecule?
A: 0

Q: What about the “Cocklebur plant response rating” value (cocklebur; [5]) of the same molecule?
A: 0

Q: And the “Cocklebur plant response rating” value (cocklebur; [6])?
A: 0

Q: And the “Plant response rating (0 to 10; 0 is no effect, 10 is complete control), Cocklebur” value (cocklebur; Rate 250 g/ha, Postemergence)?
A: 0

Q: And the “Cocklebur plant response rating” value (cocklebur; [7])?
A: 1

Q: What about the “Corn plant response rating” value (corn; [1]) of the same molecule?
A: 0

Q: What about the “Corn plant response rating” value (corn; [2]) of the same molecule?
A: 3

Q: And the “Plant response rating, Corn” value (corn; [3])?
A: 5

Q: What about the “Corn plant response rating” value (corn; [4]) of the same molecule?
A: 0

Q: What about the “Corn plant response rating” value (corn; [5]) of the same molecule?
A: 0

Q: What about the “Corn plant response rating” value (corn; [6]) of the same molecule?
A: 2

Q: What about the “Plant response rating (0 to 10; 0 is no effect, 10 is complete control), Corn” value (corn; Rate 250 g/ha, Postemergence) of the same molecule?
A: 0

Q: And the “Corn plant response rating” value (corn; [7])?
A: 0

Q: And the “Crabgrass plant response rating” value (crabgrass; [1])?
A: 3

Q: And the “Crabgrass plant response rating” value (crabgrass; [2])?
A: 9

Q: What about the “Plant response rating, Crabgrass” value (crabgrass; [3]) of the same molecule?
A: 10

Q: What about the “Crabgrass plant response rating” value (crabgrass; [6]) of the same molecule?
A: 7

Q: What about the “Plant response rating (0 to 10; 0 is no effect, 10 is complete control), Crabgrass” value (crabgrass; Rate 250 g/ha, Postemergence) of the same molecule?
A: 2

Q: What about the “Crabgrass plant response rating” value (crabgrass; [7]) of the same molecule?
A: 5

Q: And the “Giant foxtail plant response rating” value (giant foxtail; [1])?
A: 8

Q: And the “Giant foxtail plant response rating” value (giant foxtail; [2])?
A: 10

Q: What about the “Plant response rating, Giant foxtail” value (giant foxtail; [3]) of the same molecule?
A: 10

Q: What about the “Giant foxtail plant response rating” value (giant foxtail; [6]) of the same molecule?
A: 9

Q: What about the “Plant response rating (0 to 10; 0 is no effect, 10 is complete control), Giant foxtail” value (giant foxtail; Rate 250 g/ha, Postemergence) of the same molecule?
A: 4

Q: And the “Giant foxtail plant response rating” value (giant foxtail; [7])?
A: 7

Q: What about the “Morningglory plant response rating” value (morningglory; [1]) of the same molecule?
A: 0

Q: And the “Morningglory plant response rating” value (morningglory; [2])?
A: 0

Q: What about the “Plant response rating, Morningglory” value (morningglory; [3]) of the same molecule?
A: 0

Q: And the “Morningglory plant response rating” value (morningglory; [6])?
A: 0

Q: What about the “Plant response rating (0 to 10; 0 is no effect, 10 is complete control), Morningglory” value (morningglory; Rate 250 g/ha, Postemergence) of the same molecule?
A: 7

Q: And the “Morningglory plant response rating” value (morningglory; [7])?
A: 10

Q: And the “Redroot pigweed plant response rating” value (pigweed; [1])?
A: 0

Q: And the “Redroot pigweed plant response rating” value (pigweed; [2])?
A: 7

Q: And the “Plant response rating, Redroot pigweed” value (pigweed; [3])?
A: 10

Q: What about the “Redroot pigweed plant response rating” value (pigweed; [6]) of the same molecule?
A: 2

Q: And the “Plant response rating (0 to 10; 0 is no effect, 10 is complete control), Redroot pigweed” value (pigweed; Rate 250 g/ha, Postemergence)?
A: 2

Q: What about the “Redroot pigweed plant response rating” value (pigweed; [7]) of the same molecule?
A: 3

Q: What about the “Rape plant response rating” value (rape; [1]) of the same molecule?
A: 0

Q: And the “Rape plant response rating” value (rape; [2])?
A: 5

Q: And the “Plant response rating, Rape” value (rape; [3])?
A: 7

Q: And the “Rape plant response rating” value (rape; [6])?
A: 1

Q: What about the “Plant response rating (0 to 10; 0 is no effect, 10 is complete control), Rape” value (rape; Rate 250 g/ha, Postemergence) of the same molecule?
A: 0

Q: What about the “Rape plant response rating” value (rape; [7]) of the same molecule?
A: 3

Q: And the “Soybean plant response rating” value (soybean; [1])?
A: 0

Q: What about the “Soybean plant response rating” value (soybean; [2]) of the same molecule?
A: 2

Q: And the “Plant response rating, Soybean” value (soybean; [3])?
A: 3

Q: And the “Soybean plant response rating” value (soybean; [6])?
A: 0

Q: And the “Soybean plant response rating” value (soybean; [7])?
A: 6

Q: What about the “Sugarbeets plant response rating” value (sugar beet; [1]) of the same molecule?
A: 0

Q: What about the “Sugarbeets plant response rating” value (sugar beet; [2]) of the same molecule?
A: 5

Q: What about the “Plant response rating, Sugarbeets” value (sugar beet; [3]) of the same molecule?
A: 7

Q: What about the “Sugarbeets plant response rating” value (sugar beet; [6]) of the same molecule?
A: 2

Q: And the “Sugarbeets plant response rating” value (sugar beet; [7])?
A: 2

Q: And the “Velvetleaf plant response rating” value (velvetleaf; [1])?
A: 2

Q: What about the “Velvetleaf plant response rating” value (velvetleaf; [2]) of the same molecule?
A: 5

Q: What about the “Plant response rating, Velvetleaf” value (velvetleaf; [3]) of the same molecule?
A: 7

Q: And the “Velvetleaf plant response rating” value (velvetleaf; [6])?
A: 5

Q: What about the “Velvetleaf plant response rating” value (velvetleaf; [7]) of the same molecule?
A: 0

Q: And the “Wheat plant response rating” value (wheat; [1])?
A: 0

Q: And the “Wheat plant response rating” value (wheat; [2])?
A: 4

Q: What about the “Plant response rating, Wheat” value (wheat; [3]) of the same molecule?
A: 7

Q: And the “Wheat plant response rating” value (wheat; [6])?
A: 4

Q: What about the “Wheat plant response rating” value (wheat; [7]) of the same molecule?
A: 6

Q: What about the “Wild oats plant response rating” value (wild oat; [1]) of the same molecule?
A: 2

Q: What about the “Wild oats plant response rating” value (wild oat; [2]) of the same molecule?
A: 5

Q: What about the “Plant response rating, Wild oats” value (wild oat; [3]) of the same molecule?
A: 6

Q: And the “Wild oats plant response rating” value (wild oat; [6])?
A: 4

Q: And the “Wild oats plant response rating” value (wild oat; [7])?
A: 3

Q: And the “Plant response rating (0 to 10; 0 is no effect, 10 is complete control), Nutsedge” value (purple nutsedge; Rate 250 g/ha)?
A: 0

Q: And the “Nutsedge plant response rating” value (purple nutsedge; Rate 500 g/ha, scale 0 to 10, 0 no effect, 10 complete control)?
A: 0

Q: What about the “Rice plant response rating” value (rice; [8]) of the same molecule?
A: 0

Q: What about the “Rice plant response rating” value (rice; [9]) of the same molecule?
A: 0

Q: And the “Rice plant response rating” value (rice; [10])?
A: 0

Q: What about the “Rice plant response rating” value (rice; [11]) of the same molecule?
A: 0

Q: What about the “S. Flatsedge plant response rating” value (smallflower flatsedge; [8]) of the same molecule?
A: 0

Q: And the “S. Flatsedge plant response rating” value (smallflower flatsedge; [9])?
A: 0

Q: What about the “S. Flatsedge plant response rating” value (smallflower flatsedge; [10]) of the same molecule?
A: 0

Q: And the “S. Flatsedge plant response rating” value (smallflower flatsedge; [11])?
A: 0

Q: What about the “Ducksalad plant response rating” value (duck salad; [8]) of the same molecule?
A: 0

Q: What about the “Ducksalad plant response rating” value (duck salad; [9]) of the same molecule?
A: 0

Q: And the “Ducksalad plant response rating” value (duck salad; [10])?
A: 0

Q: What about the “Ducksalad plant response rating” value (duck salad; [11]) of the same molecule?
A: 0

Q: And the “Barnyardgrass plant response rating” value (bamyardgrass; [8])?
A: 0

Q: What about the “Barnyardgrass plant response rating” value (bamyardgrass; [9]) of the same molecule?
A: 0

Q: What about the “Barnyardgrass plant response rating” value (bamyardgrass; [10]) of the same molecule?
A: 0

Q: And the “Barnyardgrass plant response rating” value (bamyardgrass; [11])?
A: 0
